# Measurements taken from publication PMC10269622, “Blapstin, a Diapause-Specific Peptide-Like Peptide from the Chinese Medicinal Beetle Blaps rhynchopetera, Has Antifungal Function” (Microbiology Spectrum, 2023).
# Bridge positions count the residues as written; N and C are the ends. Ends that are not written are not given here.
# Key:
# C. albicans ATCC 10231 = test: Fungus-killing kinetics (colony counting); format: cell-based, Candida albicans; conditions: 5× MIC, 2 × 10^5 CFU/mL in YM broth, 37°C, three independent experiments
# Experimental: The in vitro killing curve for blapstin against C. albicans was determined as described previously with minor modifications ([66]). In brief, C. albicans ATCC 10231 was diluted to 2 × 10^5 CFU/mL with sterile YM liquid broth. Different concentrations of blapstin (1×, 5×, and 10× MIC) were added to the fungal suspension and cultured at 37°C for various periods (0, 1, 10, 30, 60, and 180 min). Colistin E (1×, 5×, and 10× MIC) was used as a positive control, and 0.9% NaCl was used as a negative control. Within the specified time interval after incubation, the fungal suspensions were diluted 1,000-fold with YM medium, and 100 μL of the diluted fungal suspension was inoculated on YM solid medium. After incubation at 37°C for 24 h, colony counting was performed and the results were expressed as CFU per milliliter.
# T. rubrum = test: Cryo-SEM membrane morphology; format: cell-based, Trichophyton rubrum; conditions: 1× MIC
# [1] = system: C. albicans ATCC 10231 biofilm; test: Inhibition of biofilm formation (crystal violet); format: cell-based, Candida albicans; conditions: 0.5×, 1×, 2×, 4× and 8× MIC, 24 h, 37°C, absorbance at 600 nm
# Experimental: Biofilms are microbial aggregates produced by the extracellular matrix that are attached to abiotic and biotic surfaces ([57]). A biofilm inhibition assay was performed as previously described, with minor modifications, to determine the ability of blapstin to inhibit biofilm formation ([69], [70]). In brief, the concentration of C. albicans ATCC 10231 was adjusted to 1 × 10^6 CFU/mL, and 200 μL per well was added to sterile 96-well plates mixed with different concentrations of blapstin (0.5×, 1×, 2×, 4×, and 8× MIC). After incubation for 24 h at 37°C, these wells were washed three times with PBS to remove unadhered fungal cells, followed by fixation with 99% methanol for 15 min. Next, methanol was removed, and the wells were allowed to dry. Then, 100 μL of 0.1% crystal violet was added to each well for 10 min, and the plate was washed three times. Finally, 100 μL of 95% ethanol was added, and the absorbance at 600 nm was measured to assess biofilm formation. Fluconazole at 10 μM and clotrimazole at 10 μΜ were used as a positive control, and sterile 0.9% NaCl was used as a negative control.
# RAW 264.7 cells = test: Cytotoxicity, CCK-8 assay; format: cell-based, mouse; conditions: from 7.03 μM to 225 μM, 24 h, CCK-8, absorbance at 450 nm; three independent experiments
# Experimental: Cytotoxicity was determined using mouse RAW 264.7 cells (10^6 cells/mL). These cells were cultured in sterile 96-well microplates with RPMI 1640 medium (Corning, USA) in a 5% CO2 incubator at 37°C. The medium was supplemented with 10% fetal calf serum (FCS) and penicillin-streptomycin (100 U/mL each). Cytotoxicity was assessed using the cell counting kit-8 (CCK-8) assay (MCE, USA). After 24 h of incubation with serial dilutions of blapstin, 10 μL of CCK-8 solution was added to each well. The plate was further incubated for 1 to 4 h under standard cell growth conditions, and the residual absorbance was read at 450 nm. The experiments were repeated three times according to the manufacturer’s instructions.
# [2] = Stability in human plasma (residual antifungal activity, inhibition zone); format: in vitro ADME; conditions: 225 μM in 100% human plasma
# Experimental: The stability of blapstin in human plasma was assessed using a previously described method ([67]). Blapstin (225 μM) was mixed with 100% human plasma and incubated at 37°C for 0, 2, 4, 6, 8, 10, 15, and 24 h, respectively. Then, the residual antifungal activity against C. albicans ATCC 10231 for each incubation period was evaluated using an inhibition zone assay. Nutrient YM solid medium was coated with C. albicans ATCC 10231, and then 10-μL aliquots of the plasma-peptide mixture were added to sterile, 5-mm-diameter filter paper disks placed on the medium. After 24 h of incubation, the diameter of the inhibition zone against C. albicans ATCC 10231 was measured in triplicate.
# human erythrocytes = test: Hemolysis assay; format: cell-based; conditions: concentration as high as 56.25 μM, 30 min, 37°C; 1% Triton X-100 as maximum hemolysis; three independent experiments
# Experimental: As previously reported ([65], [67]), hemolytic activity and cytotoxicity assays were performed using human erythrocytes and mouse macrophages (RAW 264.7 cells). These cells were obtained from Kunming Medical University and Cell Bank of Kunming Institute of Zoology, Chinese Academy of Sciences, respectively. To investigate the hemolytic activity, washed erythrocytes were diluted with normal saline into a suspension of 10^7 to 10^8 cells/mL and mixed with serial dilutions of blapstin (from 1.76 μM to 225 μM) at a 1:1 ratio, followed by incubation for 30 min at 37°C. Then, these erythrocytes were centrifuged for 15 min at 500 × g (Eppendorf, Germany; FA-45-24-11, 4°C). Next, the supernatant was collected, and the hemolysis rate (%) was measured to quantify the hemolysis of blapstin. The maximum hemolysis rate was determined using an equal volume of 1% Triton X-100 as a positive control, and the zero hemolysis rate was determined using sterile normal saline as a negative control. Hemolytic activity was calculated using the following formula: hemolysis rate (%) = (hemolysis of experimental group-negative control)/(hemolysis of positive control-negative control) × 100%. HC50 values were defined as the peptide concentrations causing 50% hemolysis of human erythrocytes.
# trypsin = test: Effect of protease on antifungal activity; format: in vitro ADME; conditions: 0.5 μL of 10 mg/mL trypsin with 20 μL of 225 μM peptide, 37°C, 1 h; read-out paper disk assay against C. albicans
# Experimental: (§1) (iii) Effects of protease. In terms of the influence of protease on the antifungal activity of blapstin, trypsin and chymotrypsin were selected for the experiment, and 0.5 μL of a 10-mg/mL concentration of proteases (including trypsin and chymotrypsin) and (20 μL(225 μM) of blapstin were mixed and incubated at 37°C for 1 h ([64]). Colistin E was used as the positive control, and 1.5% NaCl was used as the negative control. Then, these samples were transferred to the paper disks in the YM solid medium with C. albicans and incubated at 37°C for 18 h for the assay of antifungal activity.
# chymotrypsin = test: Effect of protease on antifungal activity; format: in vitro ADME; conditions: 0.5 μL of 10 mg/mL chymotrypsin with 20 μL of 225 μM peptide, 37°C, 1 h; read-out paper disk assay against C. albicans
# Experimental: as §1
sequence,measurement,setting,value
"VRVGPCDQVCSRTNPEKDECCRAHGHSGHSSCYGGRMNCYG (disulfide 6-21, 10-32, 20-39 (inferred)) [Blapstin]",Time to kill C. albicans ATCC 10231,C. albicans ATCC 10231,less than 60 min
same,Membrane morphology under cryo-SEM,T. rubrum,membrane shrinkage and disruption of the plasma membrane
same,Biofilm formation by C. albicans,[1],dose-dependently inhibited
same,Cytotoxicity in RAW 264.7 cells,RAW 264.7 cells,no obvious cytotoxicity
same,Residual antifungal activity after incubation in human plasma,"[2]; 37°C, 24 h, inhibition zone against C. albicans ATCC 10231, triplicate",did not completely disappear
same,Stability in human plasma,"[2]; 8 h at 37°C, inhibition zone against C. albicans ATCC 10231",high stability
same,Hemolytic activity against human erythrocytes,human erythrocytes,little hemolytic activity
same,Sensitivity of antifungal activity to protease,trypsin,insensitive
same,Sensitivity of antifungal activity to protease,chymotrypsin,insensitive
